The source of these data is ChEMBL document CHEMBL4406833 (Eur J Med Chem, 2019).

Data set [1] has as its target Indoleamine 2,3-dioxygenase 1 (Homo sapiens, UniProt P14902). The data set is described as follows: Inhibition of IDO1 in human HeLa cells using L-tryptophan as substrate incubated for 48 hrs. In kind it is cell-based.
A short description of data set [2]: Toxicity in C57BL6 mouse allografted with Lewis cells assessed as increase in body weight at 60 mg/kg, ig measured every 3 days for 30 days. Particulars: in vivo, po, 720 h. In kind it is organism-based.
Data set [3] has as its system Lewis lung carcinoma cell line. Put plainly: Antimetastatic activity against LLC cells allografted in C57BL6 mouse assessed as number of metastatic nodules in lung at 60 mg/kg, ig after 30 days by H and E staining based analysis. In kind it is functional.
Data set [4] deals with T1, Indoleamine 2,3-dioxygenase 2 (Homo sapiens, UniProt Q6ZQW0).
T1 sequence (Q6ZQW0 whole entry): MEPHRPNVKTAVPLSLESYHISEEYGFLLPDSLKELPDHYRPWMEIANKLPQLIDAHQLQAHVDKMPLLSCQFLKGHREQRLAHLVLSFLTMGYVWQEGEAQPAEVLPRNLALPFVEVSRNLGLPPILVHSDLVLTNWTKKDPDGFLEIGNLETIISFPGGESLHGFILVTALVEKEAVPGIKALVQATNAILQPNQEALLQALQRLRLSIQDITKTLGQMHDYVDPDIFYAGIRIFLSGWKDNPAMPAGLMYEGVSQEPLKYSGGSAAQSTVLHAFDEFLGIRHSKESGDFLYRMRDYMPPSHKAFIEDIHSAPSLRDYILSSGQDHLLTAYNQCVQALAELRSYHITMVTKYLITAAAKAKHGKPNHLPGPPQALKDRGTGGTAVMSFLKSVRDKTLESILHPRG
The data set is described as follows: Inhibition of N-terminal His-tagged human IDO2 expressed in Escherichia coli expression system.

The test system of data set [5] is Lewis lung carcinoma cell line. Put plainly: Antimetastatic activity against LLC cells allografted in C57BL6 mouse assessed as inhibition of metastatic nodules in lung at 60 mg/kg, ig after 30 days by H and E staining based analysis relative to control. In kind it is functional. Particulars: po, 720 h.
Data set [6] has as its target Tryptophan 2,3-dioxygenase (Homo sapiens, UniProt P48775). The data set is described as follows: Inhibition of N-terminal His-tagged human TDO expressed in Escherichia coli expression system.
Data set [7] can be described thus: Aqueous solubility of compound at 1 mg after 30 hrs by HPLC analysis. In kind it is physicochemical.
Data set [8] is described as follows: Apparent permeability across apical to basolateral side in human Caco2 cells upto 90 mins by LC-MS/MS analysis. The class given is ADME, cell-based. The note with it: Caco-2. On the technique in general: Caco-2 cells form a polarised layer with tight junctions and transporters.

Values after ≈ are worked out from the molar mass of the structure shown. A value given as a limit tells only on which side of the number the result lay.

Sequence of Indoleamine 2,3-dioxygenase 1 (P14902 whole entry): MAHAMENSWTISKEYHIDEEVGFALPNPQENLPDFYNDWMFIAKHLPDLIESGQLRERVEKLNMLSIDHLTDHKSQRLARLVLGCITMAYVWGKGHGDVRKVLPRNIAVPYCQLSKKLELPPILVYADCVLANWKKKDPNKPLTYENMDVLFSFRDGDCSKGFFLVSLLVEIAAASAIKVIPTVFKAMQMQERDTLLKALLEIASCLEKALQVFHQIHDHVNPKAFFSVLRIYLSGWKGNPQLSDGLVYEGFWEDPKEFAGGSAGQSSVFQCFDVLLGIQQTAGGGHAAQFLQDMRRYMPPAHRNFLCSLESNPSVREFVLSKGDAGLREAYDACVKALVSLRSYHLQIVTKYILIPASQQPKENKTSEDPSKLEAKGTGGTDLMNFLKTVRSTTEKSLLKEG
Sequence of Tryptophan 2,3-dioxygenase (P48775 whole entry): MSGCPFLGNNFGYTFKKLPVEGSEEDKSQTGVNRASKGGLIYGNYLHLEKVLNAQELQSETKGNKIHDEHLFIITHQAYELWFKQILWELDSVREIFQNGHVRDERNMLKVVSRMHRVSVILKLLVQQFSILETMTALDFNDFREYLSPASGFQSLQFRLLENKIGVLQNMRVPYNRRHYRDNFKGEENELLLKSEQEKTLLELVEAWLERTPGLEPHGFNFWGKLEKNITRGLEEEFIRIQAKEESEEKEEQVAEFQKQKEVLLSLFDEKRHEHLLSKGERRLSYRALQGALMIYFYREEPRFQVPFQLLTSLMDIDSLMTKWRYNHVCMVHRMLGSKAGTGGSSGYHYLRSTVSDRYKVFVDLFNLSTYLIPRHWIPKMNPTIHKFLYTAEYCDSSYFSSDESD

A word on the IC50: it is the midpoint of a concentration-inhibition curve. `CCOP(=O)(Cc1ccccc1)NCCNc1nonc1/C(=N/O)Nc1ccc(F)c(Br)c1` (stereo not given) returned an IC50 in data set [1] of 119 nM.

The term inhibition in vivo denotes the change of the read-out against control, counted positive when it falls. Broadly, the solubility is the concentration that dissolves in the medium under given conditions. Lower therefore signals a poorly soluble substance. A word on the Papp A→B: it is the apparent permeability from the apical to the basolateral side of a cell layer. For the compound `NS(=O)(=O)NCCNc1nonc1C(=NO)Nc1ccc(F)c(Br)c1` [EPACADOSTAT], the Activity entry in data set [2] is “Toxic”; in data set [3], 21. The IC50 in data set [4] is 710 nM; in data set [6], > 10000 nM. In data set [5], the inhibition in vivo at 60 mg/kg worked out at 77%. Moreover, in data set [7], the solubility at 30 h was 130 µg/mL (≈ 297 µM). The Papp A→B at 1.5 h in data set [8] stood at 3.1 ×10⁻⁶ cm/s.

In turn, `CCOP(=O)(Cc1cccc2ccccc12)NCCNc1nonc1/C(=N/O)Nc1ccc(F)c(Br)c1` (stereo not given) yielded an IC50 in data set [1] of 126 nM.

`CCOP(=O)(NCCNc1nonc1/C(=N/O)Nc1ccc(F)c(Br)c1)c1ccccc1` (stereo not given) registered an IC50 in data set [1] of 132 nM.
